Assays:
[1] = test system: very preterm and/or VLBW children; test: Brain subcortical volumes by MRI at school age after enteral glutamine supplementation, days 3-30 of life; type: in vivo, human
Protocol: (§1) A randomized, placebo controlled clinical trial was performed. For a detailed protocol of the study, see van den Berg et al, 2004, Glutamine-enriched enteral nutrition in very low birth weight infants. Design of a double-blind randomised controlled trial [ISRCTN73254583], BMC Pediatrics 4:17.
(§2) In short: Infants with a gestational age <32 weeks and/or birth weight <1500 g were enrolled. In total 52 very preterm and/or VLBW children, which had taken part in a randomized controlled trial on enteral glutamine supplementation between day 3 and 30 of life, participated in this follow up study at the mean age of 8.6 years (SD=0.3 years). 30 infants were in the control group and 22 in the glutamine supplementation group. Also comparisons were made with a control group (n=52) of term born infants.
(§3) The glutamine nutritional supplement was in powder form and contained 82 wt. % L-glutamine in total and 18 wt. % glucose (nitrogen 15.5 wt/wt %; 371 kcal/100 g), whereas the isonitrogenous control powder contained 100 wt. % L-alanine (nitrogen 15.7 wt/wt %, 435 kcal/100 g). The two powders were indistinguishable by appearance, colour and smell. Between days 3 and 30 of life, supplementation was administered in increasing doses to a maximum of 0.3 g/kg glutamine per day in the glutamine group. Initially, the supplementation dose was based on birth weight. After 2 weeks the dose was adjusted to actual body weight. Two members of the nursing staff daily added supplementation to breast milk or to preterm formula (Nenatal®, Nutricia Nederland B.V., Zoetermeer, The Netherlands), according to the parents' choice. Per 100 ml, Nenatal® provides 78 kcal, 2.1 g protein (casein-whey protein weight ratio 40:60), 4.4 g fat and 7.5 g carbohydrate. […] Protocol guidelines for the introduction of parenteral and enteral nutrition are disclosed in van den Berg et al., 2004.
(§4) All statistical analyses are performed on an intention to treat basis. In addition, alternative per protocol analyses are performed, excluding all patients who are not treated according to protocol, defined as more than 3 consecutive days or more than a total of 5 days on minimal enteral feeding or without supplementation. A p value<0.05 is considered significant (two-tailed). SPSS 9.0 (SPSS Inc., Chicago, Ill., USA) and STAT 7.0 (Stat-Corp LP, College Station, Tex., USA) are used for data analysis. A p value of 0.1 or below is considered to represent a realistic effect, a trend. Due to the small size of the groups also the effect size is taken into account. An effect size above 0.4 is considered to represent a trend.
Brain subcortical volumes were determined by Mill and calculated using FSL software “FAST” and corrected for age at Mill scan, gender and body weight for gestational age. […] This was the case for the brain stem, thalamus, putamen, caudate nucleus, hippocampus, globus pallidum, amygdale, nucleus accumbens and the corpus callosum volume.

[2] = test system: glutamine fed preterm group; test: fMRI neuronal activation later in life; type: in vivo, human
From the text: The improved brain development established at school age is indicative for improvement in neurocognitive functioning, behavioral and/or motional development, improving neuronal activation during interference task or during visuo-spatial working memory task, improvement of visuomotor skills (caterpillar-task).

[3] = test system: VLBL infants; conditions: supplementation with glutamine in VLBL infants; cited from earlier work
[4] = test system: VLBW infants; conditions: in the first year of life and at the age of 6; cited from earlier work
[5] = test system: VLBW infants; conditions: at age of 2 years; cited from earlier work
[6] = test system: very preterm and/or VLBW children; test: Brain cortical volumes by MRI at school age after enteral glutamine supplementation, days 3-30 of life; type: in vivo, human
Protocol: as §1, §2, §3, §4
Brain cortical volumes were determined by MRI and calculated using FSL software “FAST” and corrected for age at MM scan, gender and body weight for gestational age. […] This was the case for intracranial volume, grey matter, white matter and cerebellum volume.

[7] = test system: very preterm and/or VLBW children; test: Intellectual development, short form of WISC-III; type: in vivo, human; conditions: mean, sd 17.7, n=30; scores normalised with a mean of 100 (SD 15); p=0.12 versus control
Protocol: Intellectual development was measured in the same group of infants as example 1 by a short form of the Wechsler Intelligence Scale for Children-III (WISC-III), including the subtests Vocabulary and Block Design. […]. Both subtests correlate strongly (r 0.90) with full-scale intelligence quotient (FSIQ). Scores on this test were normalised with a mean of 100 (SD 15). There was a trend (p=0.12 when adjusted for gestational age and socioeconomic status) in improved IQ (WISC-III FSIQ being 102, sd 17.7, n=30) in the glutamine group compared to the control group (WISC-III FSIQ 93.6 sd 17.2 n=34).

[8] = glutamine supplemented versus control preterm group
[9] = mean, MRI at mean age 8.6 years
[10] = mean, MRI at mean age 8.6 years, max 0.3 g/kg glutamine per day, days 3-30 of life

## NC(=O)CC[C@H](N)C(=O)O [Glutamine, L-glutamine]
[1]; control versus glutamine group
  Effect size, amygdala: 0.46
  Effect size, brain stem: 0.54
  Effect size, caudate nucleus: 0.10
  Effect size, corpus callosum: 0.18
  Effect size, globus pallidum: 0.48
  Effect size, hippocampus: 0.47
  Effect size, nucleus accumbens: 0.04
  Effect size, putamen: 0.55
  Effect size, subcortical structures: 0.50
  Effect size, thalamus: 0.39
[1]; [8]
  Brain stem volume compared with preterm control group: significantly higher
  Hippocampus volume compared with preterm control group: significantly higher
  Subcortical volume compared with preterm control group: higher
[1]; [9]
  Amygdala volume: 2.3 cm^3
  Brain stem volume: 18.9 cm^3
  Caudate Nucleus volume: 7.4 cm^3
  Corpus callosum: 535.7 mm^2
  Globus Pallidum volume: 3.5 cm^3
  Hippocampus volume: 7.2 cm^3
  Nucleus accumbens volume: 1.0 cm^3
  Putamen volume: 10.9 cm^3
  Subcortical structures volume: 66.5 cm^3
  Thalamus volume: 15.3 cm^3
[2]
  Neuronal activation (fMRI): more similar to term infants
[3]
  Infectious morbidity: lowers
[4]
  Risk for atopic dermatitis: decreases
[5]
  Neurodevelopment outcome: no effect
[6]; control versus glutamine group
  Effect size, cerebellum: 0.41
  Effect size, grey matter: 0.29
  Effect size, intracranial volume: 0.48
  Effect size, white matter: 0.54
[6]; [8]
  Cerebellum volume compared with preterm control group: tendency for an increase
  Cortical brain volumes compared with preterm control group: higher than in the control group
  Intracranial volume compared with preterm control group: tendency for an increase
  White matter volume compared with preterm control group: significantly higher
[6]; [10]
  Cerebellum volume: 110.89 cm^3
  Grey matter volume: 727.4 cm^3
  Intracranial volume: 1649.8 cm^3
  White matter volume: 496.5 cm^3
[7]
  WISC-III FSIQ: 102

Reference: patent US20170258747A1, “GLUTAMINE ENRICHED NUTRITIONAL COMPOSITION FOR PRETERM INFANTS” (N.V. Nutricia, priority 2012, published 2017)
